Experimental data as given in US20230085307A1, “PYRIDAZINONE COMPOUND AND HERBICIDE” (NISSAN CHEMICAL CORPORATION, priority 2019, published 2023).

Key:
[1] = test system: barnyard grass; experiment: Test Example 5: herbicidal effect by foliage application, plastic box (Table 20, symbol H); format: in vivo, barnyard grass (Echinochloa crus-galli); details: foliage application, three weeks after application
Method in brief: (§1)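 Foliar spray test: emulsion formulation diluted in water to a set application rate, sprayed onto 14-day-old plants raised in diluvial soil at 25° C to 30° C under glass. Both herbicidal effect and crop effect rated visually three weeks later.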

[2] = test system: southern crabgrass; experiment: Test Example 4: herbicidal effect by soil treatment (Table 19, symbol F); format: in vivo, southern crabgrass (Digitaria ciliaris)
Method in brief: (§2)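 Step 1: sow seeds in sterilized diluvial soil, cover ~1.5 cm. Step 2: spray diluted emulsion onto soil surface at predetermined rate. Step 3: greenhouse, 25–30° C, three weeks. Step 4: grade effect on each plant by earlier criteria.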

[3] = test system: blackgrass; experiment: Test Example 5: herbicidal effect by foliage application, plastic box (Table 20, symbol J); format: in vivo, blackgrass (Alopecurus myosuroides); details: foliage application, three weeks after application
Method in brief: as §1

[4] = test system: windgrass; experiment: Test Example 5: herbicidal effect by foliage application, plastic box (Table 20, symbol L); format: in vivo, windgrass (Apera spica-venti); details: foliage application, three weeks after application
Method in brief: as §1

[5] = test system: Italian ryegrass; experiment: Test Example 5: herbicidal effect by foliage application, plastic box (Table 20, symbol K); format: in vivo, Italian ryegrass (Lolium multiflorum); details: foliage application, three weeks after application
Method in brief: as §1

[6] = test system: barnyard grass; experiment: Test Example 4: herbicidal effect by soil treatment (Table 19, symbol H); format: in vivo, barnyard grass (Echinochloa crus-galli)
Method in brief: as §2

[7] = test system: southern crabgrass; experiment: Test Example 5: herbicidal effect by foliage application, plastic box (Table 20, symbol F); format: in vivo, southern crabgrass (Digitaria ciliaris); details: foliage application, three weeks after application
Method in brief: as §1

[8] = test system: redroot pigweed; experiment: Test Example 5: herbicidal effect by foliage application, plastic box (Table 20, symbol N); format: in vivo, redroot pigweed (Amaranthus retroflexus); details: foliage application, three weeks after application
Method in brief: as §1

[9] = test system: persian speedwell; experiment: Test Example 5: herbicidal effect by foliage application, plastic box (Table 20, symbol R); format: in vivo, Persian speedwell (Veronica persica); details: foliage application, three weeks after application
Method in brief: as §1

[10] = test system: Italian ryegrass; experiment: Test Example 4: herbicidal effect by soil treatment (Table 19, symbol K); format: in vivo, Italian ryegrass (Lolium multiflorum)
Method in brief: as §2

[11] = test system: false cleavers; experiment: Test Example 4: herbicidal effect by soil treatment (Table 19, symbol Q); format: in vivo, false cleavers (Galium spurium)
Method in brief: as §2

[12] = test system: Chinese sprangletop; experiment: Test Example 3: herbicidal effect by foliage application, Wagner pot (Table 18, symbol D); format: in vivo, chinese sprangletop (Leptochloa chinensis)
Method in brief: (§3)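 Plants were sown in alluvial soil held under 0.1–0.5 cm standing water and grown 14 days in a greenhouse at 25–30 °C. An emulsifiable formulation, water-diluted to the set dose, was then sprayed onto the foliage, and effects were scored three weeks later using previously defined criteria.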

[13] = test system: windgrass; experiment: Test Example 4: herbicidal effect by soil treatment (Table 19, symbol L); format: in vivo, windgrass (Apera spica-venti)
Method in brief: as §2

[14] = test system: green foxtail; experiment: Test Example 5: herbicidal effect by foliage application, plastic box (Table 20, symbol G); format: in vivo, green foxtail (Setaria viridis); details: foliage application, three weeks after application
Method in brief: as §1

[15] = test system: persian speedwell; experiment: Test Example 4: herbicidal effect by soil treatment (Table 19, symbol R); format: in vivo, Persian speedwell (Veronica persica)
Method in brief: as §2

[16] = test system: redroot pigweed; experiment: Test Example 4: herbicidal effect by soil treatment (Table 19, symbol N); format: in vivo, redroot pigweed (Amaranthus retroflexus)
Method in brief: as §2

[17] = test system: lambsquarters; experiment: Test Example 4: herbicidal effect by soil treatment (Table 19, symbol O); format: in vivo, lambsquarters (Chenopodium album)
Method in brief: as §2

[18] = test system: velvetleaf; experiment: Test Example 5: herbicidal effect by foliage application, plastic box (Table 20, symbol M); format: in vivo, velvetleaf (Abutilon theophrasti); details: foliage application, three weeks after application
Method in brief: as §1

[19] = test system: lambsquarters; experiment: Test Example 5: herbicidal effect by foliage application, plastic box (Table 20, symbol O); format: in vivo, lambsquarters (Chenopodium album); details: foliage application, three weeks after application
Method in brief: as §1

[20] = test system: wild oat; experiment: Test Example 4: herbicidal effect by soil treatment (Table 19, symbol I); format: in vivo, wild oat (Avena fatua)
Method in brief: as §2

[21] = test system: blackgrass; experiment: Test Example 4: herbicidal effect by soil treatment (Table 19, symbol J); format: in vivo, blackgrass (Alopecurus myosuroides)
Method in brief: as §2

[22] = test system: chickweed; experiment: Test Example 5: herbicidal effect by foliage application, plastic box (Table 20, symbol P); format: in vivo, common chickweed (Stellaria media); details: foliage application, three weeks after application
Method in brief: as §1

[23] = test system: chickweed; experiment: Test Example 4: herbicidal effect by soil treatment (Table 19, symbol P); format: in vivo, common chickweed (Stellaria media)
Method in brief: as §2

[24] = test system: velvetleaf; experiment: Test Example 4: herbicidal effect by soil treatment (Table 19, symbol M); format: in vivo, velvetleaf (Abutilon theophrasti)
Method in brief: as §2

[25] = test system: barnyard grass; experiment: Test Example 3: herbicidal effect by foliage application, Wagner pot (Table 18, symbol H); format: in vivo, barnyard grass (Echinochloa crus-galli)
Method in brief: as §3

[26] = test system: rice flat sedge; experiment: Test Example 3: herbicidal effect by foliage application, Wagner pot (Table 18, symbol E); format: in vivo, rice flat sedge (Cyperus iria)
Method in brief: as §3

[27] = test system: wild oat; experiment: Test Example 5: herbicidal effect by foliage application, plastic box (Table 20, symbol I); format: in vivo, wild oat (Avena fatua); details: foliage application, three weeks after application
Method in brief: as §1

[28] = test system: green foxtail; experiment: Test Example 4: herbicidal effect by soil treatment (Table 19, symbol G); format: in vivo, green foxtail (Setaria viridis)
Method in brief: as §2

[29] = amount of applied herbicide 320 g/ha

Compound: COc1ccc(-c2sc3ccccc3c2-c2c(O)c(OC)nn(C)c2=O)cc1OC [1-182]
- H: barnyard grass, herbicidal effect ([1]; AAH 80 g/ha): 3 (Herbicidal rate of 40% or more and less than 70%)
- F: southern crabgrass, herbicidal effect rating ([2]; AAH 80 g/ha): 1 (Herbicidal rate of 5% or more and less than 20%)
- J: blackgrass, herbicidal effect ([3]; AAH 80 g/ha): 0 (Herbicidal rate of 5% or less (almost no effect))
- L: windgrass, herbicidal effect ([4]; AAH 80 g/ha): 0 (Herbicidal rate of 5% or less (almost no effect))
- K: Italian ryegrass, herbicidal effect ([5]; AAH 80 g/ha): 3 (Herbicidal rate of 40% or more and less than 70%)
- H: barnyard grass, herbicidal effect rating ([6]; AAH 80 g/ha): 0 (Herbicidal rate of 5% or less (almost no effect))
- F: southern crabgrass, herbicidal effect ([7]; AAH 80 g/ha): 3 (Herbicidal rate of 40% or more and less than 70%)
- N: redroot pigweed, herbicidal effect ([8]; AAH 80 g/ha): 3 (Herbicidal rate of 40% or more and less than 70%)
- R: persian speedwell, herbicidal effect ([9]; AAH 80 g/ha): 5 (Herbicidal rate of 90% or more (almost completely withered))
- K: Italian ryegrass, herbicidal effect rating ([10]; AAH 80 g/ha): 0 (Herbicidal rate of 5% or less (almost no effect))
- Q: false cleavers, herbicidal effect rating ([11]; AAH 80 g/ha): 0 (Herbicidal rate of 5% or less (almost no effect))
- herbicidal effect on D (Chinese sprangletop), rating 0-5 ([12]; 80 g/ha): 3 (Herbicidal rate of 40% or more and less than 70%)
- L: windgrass, herbicidal effect rating ([13]; AAH 80 g/ha): 0 (Herbicidal rate of 5% or less (almost no effect))
- G: green foxtail, herbicidal effect ([14]; AAH 80 g/ha): 4 (Herbicidal rate of 70% or more and less than 90%)
- R: persian speedwell, herbicidal effect rating ([15]; AAH 80 g/ha): 5 (Herbicidal rate of 90% or more (almost completely withered))
- N: redroot pigweed, herbicidal effect rating ([16]; AAH 80 g/ha): 5 (Herbicidal rate of 90% or more (almost completely withered))
- O: lambsquarters, herbicidal effect rating ([17]; AAH 80 g/ha): 4 (Herbicidal rate of 70% or more and less than 90%)
- M: velvetleaf, herbicidal effect ([18]; AAH 80 g/ha): 4 (Herbicidal rate of 70% or more and less than 90%)
- O: lambsquarters, herbicidal effect ([19]; AAH 80 g/ha): 5 (Herbicidal rate of 90% or more (almost completely withered))
- I: wild oat, herbicidal effect rating ([20]; AAH 80 g/ha): 0 (Herbicidal rate of 5% or less (almost no effect))
- J: blackgrass, herbicidal effect rating ([21]; AAH 80 g/ha): 0 (Herbicidal rate of 5% or less (almost no effect))
- P: chickweed, herbicidal effect ([22]; AAH 80 g/ha): 5 (Herbicidal rate of 90% or more (almost completely withered))
- P: chickweed, herbicidal effect rating ([23]; AAH 80 g/ha): 4 (Herbicidal rate of 70% or more and less than 90%)
- M: velvetleaf, herbicidal effect rating ([24]; AAH 80 g/ha): 1 (Herbicidal rate of 5% or more and less than 20%)
- herbicidal effect on H (barnyard grass), rating 0-5 ([25]; 80 g/ha): 4 (Herbicidal rate of 70% or more and less than 90%)
- herbicidal effect on E (rice flat sedge), rating 0-5 ([26]; 80 g/ha): 5 (Herbicidal rate of 90% or more (almost completely withered))
- I: wild oat, herbicidal effect ([27]; AAH 80 g/ha): 0 (Herbicidal rate of 5% or less (almost no effect))
- G: green foxtail, herbicidal effect rating ([28]; AAH 80 g/ha): 5 (Herbicidal rate of 90% or more (almost completely withered))

Compound: CCCC(=O)Oc1c(C)nn(C)c(=O)c1-c1c(-c2ccc(F)cc2SC)sc2ccccc12 [1-064]
- herbicidal effect grade, H: barnyard grass ([1]; 320 g/ha): 0 (Herbicidal rate of 5% or less (almost no effect))
- herbicidal effect rating, F: southern crabgrass [2, 29]: 0 (Herbicidal rate of 5% or less (almost no effect))
- herbicidal effect grade, J: blackgrass ([3]; 320 g/ha): 0 (Herbicidal rate of 5% or less (almost no effect))
- herbicidal effect grade, L: windgrass ([4]; 320 g/ha): 0 (Herbicidal rate of 5% or less (almost no effect))
- herbicidal effect grade, K: Italian ryegrass ([5]; 320 g/ha): 0 (Herbicidal rate of 5% or less (almost no effect))
- herbicidal effect rating, H: barnyard grass [6, 29]: 0 (Herbicidal rate of 5% or less (almost no effect))
- herbicidal effect grade, F: southern crabgrass ([7]; 320 g/ha): 0 (Herbicidal rate of 5% or less (almost no effect))
- herbicidal effect grade, N: redroot pigweed ([8]; 320 g/ha): 0 (Herbicidal rate of 5% or less (almost no effect))
- herbicidal effect grade, R: persian speedwell ([9]; 320 g/ha): 0 (Herbicidal rate of 5% or less (almost no effect))
- herbicidal effect rating, K: Italian ryegrass [10, 29]: 0 (Herbicidal rate of 5% or less (almost no effect))
- herbicidal effect rating, Q: false cleavers [11, 29]: 0 (Herbicidal rate of 5% or less (almost no effect))
- herbicidal effect on D (Chinese sprangletop), rating 0-5 ([12]; 320 g/ha): 0 (Herbicidal rate of 5% or less (almost no effect))
- herbicidal effect rating, L: windgrass [13, 29]: 0 (Herbicidal rate of 5% or less (almost no effect))
- herbicidal effect grade, G: green foxtail ([14]; 320 g/ha): 0 (Herbicidal rate of 5% or less (almost no effect))
- herbicidal effect rating, R: persian speedwell [15, 29]: 0 (Herbicidal rate of 5% or less (almost no effect))
- herbicidal effect rating, N: redroot pigweed [16, 29]: 0 (Herbicidal rate of 5% or less (almost no effect))
- herbicidal effect rating, O: lambsquarters [17, 29]: 0 (Herbicidal rate of 5% or less (almost no effect))
- herbicidal effect grade, M: velvetleaf ([18]; 320 g/ha): 0 (Herbicidal rate of 5% or less (almost no effect))
- herbicidal effect grade, O: lambsquarters ([19]; 320 g/ha): 0 (Herbicidal rate of 5% or less (almost no effect))
- herbicidal effect rating, I: wild oat [20, 29]: 0 (Herbicidal rate of 5% or less (almost no effect))
- herbicidal effect rating, J: blackgrass [21, 29]: 0 (Herbicidal rate of 5% or less (almost no effect))
- herbicidal effect grade, P: chickweed ([22]; 320 g/ha): 4 (Herbicidal rate of 70% or more and less than 90%)
- herbicidal effect rating, P: chickweed [23, 29]: 3 (Herbicidal rate of 40% or more and less than 70%)
- herbicidal effect rating, M: velvetleaf [24, 29]: 0 (Herbicidal rate of 5% or less (almost no effect))
- herbicidal effect on H (barnyard grass), rating 0-5 ([25]; 320 g/ha): 3 (Herbicidal rate of 40% or more and less than 70%)
- herbicidal effect on E (rice flat sedge), rating 0-5 ([26]; 320 g/ha): 3 (Herbicidal rate of 40% or more and less than 70%)
- herbicidal effect grade, I: wild oat ([27]; 320 g/ha): 0 (Herbicidal rate of 5% or less (almost no effect))
- herbicidal effect rating, G: green foxtail [28, 29]: 0 (Herbicidal rate of 5% or less (almost no effect))
